Reference: ChEMBL document CHEMBL1157539, “Thousands of chemical starting points for antimalarial lead identification” (Nature, 2010)

System: Plasmodium falciparum
Assay: GSK_TCMDC: Inhibition of Plasmodium falciparum 3D7 in whole erythrocytes, using parasite LDH activity as an index of growth.
Type: functional, organism-based
Conditions: Plasmodium falciparum, 3D7

| SMILES | XC50 [nM] |
| --- | --- |
| OCCN1CCN(c2nc(Nc3cccc(F)c3)c3cnn(-c4ccccc4)c3n2)CC1 | 828 |
| CCN1CCN(CC(O)CNC(=O)Nc2ccc(Cl)cc2)CC1 (stereo not drawn) | 150 |
| CC1CN(c2cnn(Cc3ccc(NC(=O)Nc4cccc(C(F)(F)F)c4)cc3)c(=O)c2Cl)CC(C)N1 (stereo not drawn) | 940 |
| CCCCCN1CCCCC(NS(=O)(=O)c2ccc(C(=O)Nc3cccc(C(F)(F)F)c3)cc2)C1 (stereo not drawn) | 750 |
| CCCCNC(=N)Nc1ccc(OCCCOc2ccc(NC(=N)NCCCC)cc2)cc1 | 164 |
| Cc1cccc(Cn2nc(-c3ccccc3)c(N3CCCCC3)cc2=O)c1 | 464 |
| Cc1nnsc1C(=O)Nc1ccc(-c2cccc(-c3nc4cc(F)ccc4[nH]3)c2)cc1 | 766 |
| CC[C@H]1CN2CC[C@H]1C[C@H]2[C@H](O)c1ccnc2ccc(O)cc12 | 643 |
| COc1ccc2ccc(F)c(CCN3CCC(NCc4cc5c(cn4)OCCO5)CC3)c2n1 | 840 |
| CC(C)OC(=O)c1cccnc1SCC(=O)Nc1ccc(C(F)(F)F)cc1Cl | 400 |
| CC(C)(C)c1ccc2[nH]c(-c3ccc(/C=C/C(=O)NC4CCN(Cc5ccccc5)CC4)cc3)nc2c1 | 589 |
| CCNC(=O)c1cc(S(=O)(=O)N2CCN(c3ccccn3)CC2)cs1 | 866 |
| O=C1COc2ccccc2N1C/C=C(\CN1CCC(c2ccccc2)CC1)c1cc(Cl)cc(Cl)c1 | 215 |
| COc1ccc(-c2cccc(NC(=O)c3cccc(F)c3)c2)cc1CN1CCCN(C)CC1 | 603 |
| O=C(N[C@@H](CC1CCCCC1)C(=O)NCc1cccc2ccccc12)c1ccc(O)c(-c2ccc(Cl)c(Cl)c2)c1 | 216 |
| COCCN1CCC(N(CC2(O)CCN(c3ccc(C(F)(F)F)cc3)CC2)C(=O)Cn2c(SCc3cccc(F)c3F)cc(=O)c3ccccc32)CC1 | 807 |
| CCc1cn2c3c(cc(C(=O)N[C@@H](Cc4ccccc4)[C@H](O)CNCC(C)C)cc13)N(C)S(=O)(=O)CC2 | 37.6 |
| COc1cc(CNCCCNc2nc(=O)c3sccc3[nH]2)c2[nH]cc(Cl)c2c1 | 888 |
| Cc1c(-c2ccccc2)ccc2[nH]cc(CC#N)c12 | 703 |
| Nc1ncc(-c2ccc(F)cc2)cc1-c1nc2ccc(Cl)cc2[nH]1 | 753 |
| Cc1ccc(CNC(=O)[C@H](Cc2ccccc2)Nc2cc(C)nc(NCCc3ccc(F)cc3)n2)cc1 | 980 |
| O=C(C=Cc1ccc(Cl)c(Cl)c1)NCCCCCN1CCCC(CCCNC(=O)c2sc3ccccc3c2Cl)C1 (stereo not drawn) | 1030 |
| Cc1ccccc1CNc1noc(-c2sccc2Br)n1 | 380 |
| C(=NNc1nc2ccccc2[nH]1)c1ccccc1OCc1ccccc1 | 256 |

| SMILES | XC50 [nM] |
| --- | --- |
| CC(C)N1CCC(NC(=O)N2CCCN(c3ncnc4cc(-c5ccc(Cl)cc5)sc34)CC2)CC1 | 1940 |
| CCCN1CCN(CCNC(=O)c2cccc(Nc3nccc(Nc4ccc(Oc5ccccc5)cc4)n3)c2)CC1 | 239 |
| NCc1ccc(-c2cccc(CNC3CCN(Cc4ccccc4)CC3)c2)cc1 | 672 |
| CC(C)CNCc1ccc(-c2cccc(CN(CCCN3CCN(C)CC3)C(=O)/C=C/c3ccccc3)c2)cc1 | 872 |
| CNCCNc1nccc(N2CCc3ncnc(Nc4ccc(OCc5cccc(F)c5)c(Cl)c4)c3C2)n1 | 197 |
| O=C1COC2(CN1C1CCN(Cc3ccc(O)c(Cl)c3)C1)c1ccccc1-c1ccccc12 (stereo not drawn) | 960 |
| Fc1cccc(Cl)c1-c1nc(NCCC(c2ccccc2)c2ccccc2)no1 | 546 |
| CN1CCC(C(=O)Nc2ccc(-c3cccc(-c4nc5cc(C(F)(F)F)ccc5[nH]4)c3)cc2)CC1 | 577 |
| COc1ccc2nccc([C@H](O)CN3CCC(NCc4ccc5c(c4C)OCCO5)CC3)c2n1 | 886 |
| COc1cc(NC(=O)N2CCc3ccc(OCCC4CCCN4C)cc32)cc(C(F)(F)F)c1 (stereo not drawn) | 714 |
| CC(C)CCNC(=O)C1Cc2c([nH]c3cc(Br)ccc23)C2(CCN(CCc3ccccc3)CC2)N1 (stereo not drawn) | 910 |
| COc1cc(NC(=O)c2c(-c3c(F)cccc3Cl)noc2C)c(OC)cc1Cl | 861 |
| CCOC(=O)Cc1nc(C(=O)OCC)c(N)[nH]1 | 647 |
| CC[C@H](C)CNC(=O)c1cncc(-c2ccc(CN3CCC(N4CCCC4)CC3)cc2)c1 | 968 |
| CCCCN(Cc1cc(Cl)c(OC)c(OC)c1)c1ccc(C(O)(C(F)(F)F)C(F)(F)F)cc1 | 194 |
| COc1ccc2ncc(F)c(CCN3CC[C@@H](CNCc4cc5c(cn4)OCS5)C3)c2n1 | 1160 |
| COc1cc(NC(=O)/C=C/c2ccc(-c3ccccc3)cc2)ccc1OCCN(C(C)C)C(C)C | 843 |
| COc1ccc2nccc([C@@H](O)CN3CCC(NCc4ccc5cccc(O)c5n4)CC3)c2n1 | 912 |
| C[C@H](NC(=O)c1cc(-c2ccc(C(C)(C)C)cc2)no1)C(=O)O.C[C@H](NC(=O)c1conc1-c1ccc(C(C)(C)C)cc1)C(=O)O | 140 |
| COC(=O)[C@@H](NC(=O)[C@H](CC(C)C)Nc1ccc(C#N)c2ccccc12)c1ccc(O)cc1 | 788 |
| O=C(Nc1ccsc1C(=O)NC1CCCCC1)c1ccc(F)cc1 | 1210 |
| COc1ccccc1N1CCN(CCCCN(C(=O)Nc2cccc(Cl)c2)C(=O)Nc2cccc(Cl)c2)CC1 | 707 |
| Cc1cnc(NCCc2ccc(F)cc2)nc1NCCC(=O)Nc1ccccc1 | 946 |
| CC(CCCCOCCc1ccccc1)NCC(O)c1cc(Cl)c(N)c(Cl)c1 (stereo not drawn) | 788 |
